The values that follow come from ChEMBL document CHEMBL5316264, “Identification of N- and C-3-Modified Laudanosoline Derivatives as Novel Influenza PAN Endonuclease Inhibitors” (J Med Chem, 2023).

This assay deals with Polymerase acidic protein (Influenza A virus (A/Puerto Rico/8/1934(H1N1)), UniProt P03433). Conditions: hek293t.

In turn, `CCCOC(=O)[C@@H]1Cc2cc(O)c(O)cc2[C@H](Cc2ccc(O)c(O)c2)N1C(=O)c1ccccc1Cl` showed a half-inhibitory concentration (IC50) of 10.8 µM.

`O=C1c2c(O)c(=O)ccn2N([C@@H]2c3ccccc3SCc3c2ccc(F)c3F)[C@@H]2COCCN12` [BALOXAVIR]: the midpoint of inhibition, the IC50, lay at 300 µM.

In general, IC50 refers to the point on the concentration scale where inhibition reaches its midpoint. Read a low IC50 as higher potency.
